In patent publication US9751854B2 (Millennium Pharmaceuticals, Inc., priority 2014, dated 2017):
Read-outs that look alike come from different tables or passages of the source.

Target: human VPS34 (Homo sapiens (Human), UniProt Q8NEB9)
Assay: Human VPS34 enzyme assay (Adapta TR-FRET ADP detection)
Format: biochemical
Set-up: Percent Inhibition: dose or concentration left out as unconfirmed

Chain of human VPS34 (Q8NEB9 whole entry): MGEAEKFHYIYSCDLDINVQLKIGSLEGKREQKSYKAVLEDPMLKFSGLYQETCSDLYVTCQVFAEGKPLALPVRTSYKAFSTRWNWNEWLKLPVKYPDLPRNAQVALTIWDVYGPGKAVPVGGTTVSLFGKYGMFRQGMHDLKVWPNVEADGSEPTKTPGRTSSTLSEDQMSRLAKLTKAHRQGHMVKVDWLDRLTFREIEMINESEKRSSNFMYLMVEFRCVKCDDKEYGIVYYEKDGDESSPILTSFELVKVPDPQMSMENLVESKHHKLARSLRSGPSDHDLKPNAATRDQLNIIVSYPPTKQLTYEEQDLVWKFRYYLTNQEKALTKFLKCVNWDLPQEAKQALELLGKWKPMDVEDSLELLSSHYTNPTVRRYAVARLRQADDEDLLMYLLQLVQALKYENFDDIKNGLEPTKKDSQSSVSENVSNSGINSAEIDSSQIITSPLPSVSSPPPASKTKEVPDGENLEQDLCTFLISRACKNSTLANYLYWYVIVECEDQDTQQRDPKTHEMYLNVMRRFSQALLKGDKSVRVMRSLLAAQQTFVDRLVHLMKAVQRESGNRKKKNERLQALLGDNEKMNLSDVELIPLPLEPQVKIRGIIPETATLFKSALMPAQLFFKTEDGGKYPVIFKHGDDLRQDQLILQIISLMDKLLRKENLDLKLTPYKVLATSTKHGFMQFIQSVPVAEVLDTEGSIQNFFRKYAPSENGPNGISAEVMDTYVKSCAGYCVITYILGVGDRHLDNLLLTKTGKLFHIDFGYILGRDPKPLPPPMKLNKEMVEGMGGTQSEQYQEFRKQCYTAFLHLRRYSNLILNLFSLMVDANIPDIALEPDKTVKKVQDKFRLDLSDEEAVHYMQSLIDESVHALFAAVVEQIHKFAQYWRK

| Structure (SMILES) | IC50 (IC50 range class) | Percent Inhibition | IC50 |
| --- | --- | --- | --- |
| CC(=O)Nc1cc(-c2cnc(C)c(NS(=O)(=O)c3ccc(F)cc3F)c2)c(F)cn1 [Compound I-161, N-(5-{[(2,4-difluorophenyl)sulfonyl]amino}-5′-fluoro-6-methyl-3,4′-bipyridin-2′-yl)acetamide] | < 0.01 µM | – | – |
| CN(C)c1ncc(-c2ccnc(Nc3ccncn3)c2)cc1C(=O)N(C)C12CC(C1)C2 [Compound I-284, N-(bicyclo[1.1.1]pent-1-yl)-6-(dimethylamino)-N-methyl-2′-(pyrimidin-4-ylamino]-3,4′-bipyridine-5-carboxamide] | 0.01 to 0.05 µM | – | – |
| CC(=O)Nc1cc(-c2cnc3cc[nH]c3c2)ccn1 [Compound I-17, N-[4-(1H-pyrrolo[3,2-b]pyridin-6-yl)pyridin-2-yl]acetamide] | 0.05 to 0.1 µM | – | – |
| Cc1nccc(Nc2cc(-c3cnc(Cl)c(S(=O)(=O)NC45CC(C4)C5)c3)ccn2)n1 [Compound I-242, N-(bicyclo[1.1.1]pent-1-yl)-6-chloro-2′-[(2-methylpyrimidin-4-yl)amino]-3,4′-bipyridine-5-sulfonamide] | 0.01 to 0.05 µM | – | – |
| CNC(=O)c1cc(-c2ccnc(NC(C)=O)c2)cnc1N [Compound I-57, 2′-acetamido-6-amino-N-methyl-3,4′-bipyridine-5-carboxamide] | 0.01 to 0.05 µM | – | – |
| Cc1nccc(Nc2cc(-c3cnc(C)c(C(=O)N4CC5(COC5)C4)c3)ccn2)n1 [Compound I-415, {6-methyl-2′-[(2-methylpyrimidin-4-yl)amino]-3,4′-bipyridin-5-yl}(2-oxa-6-azaspiro[3,3]hept-6-yl)methanone] | 0.01 to 0.05 µM | – | – |
| CC(=O)Nc1cc(-c2cncc(N(C)S(=O)(=O)N(C)C)c2)ccn1 [Compound I-458, N-{5-[(dimethylsulfamoyl)(methyl)amino]-3,4′-bipyridin-2′-yl}acetamide] | 0.01 to 0.05 µM | – | – |
| CC(=O)Nc1cc(-c2cnc(C)c(NC(C)=O)c2)ccn1 [Compound I-193, N,N′-(6-methyl-3,4′-bipyridine-2′,5-diyl)diacetamide] | 0.05 to 0.1 µM | – | – |
| CC(=O)Nc1cc(-c2cnc3[nH]cc(CN4CCCC4)c3c2)ccn1 [Compound I-54, N-{4-[3-(pyrrolidin-1-ylmethyl)-1H-pyrrolo[2,3-b]pyridin-5-yl]pyridin-2-yl}acetamide] | > 0.1 µM | – | – |
| CNc1ncc(-c2ccnc(NC(C)=O)c2)cc1C(=O)N(C)C12CC(C1)C2 [Compound I-449, 2′-acetamido-N-(bicyclo[1.1.1]pent-1-yl)-N-methyl-6-(methylamino)-3,4′-bipyridine-5-carboxamide] | 0.01 to 0.05 µM | – | – |
| CCCCN(CCCC)S(=O)(=O)Nc1cc(-c2ccnc(NC(C)=O)c2)cnc1C [Compound I-350, N-{5-[(dibutylsulfamoyl)amino]-6-methyl-3,4′-bipyridin-2′-yl}acetamide] | < 0.01 µM | – | – |
| CC(=O)Nc1cc(-c2cnc(Cl)c(NS(=O)(=O)c3ccc(C(F)(F)F)cc3Cl)c2C)ccn1 [Compound I-333, N-(6-chloro-5-(2-chloro-4-(trifluoromethyl)phenylsulfonamido)-4-methyl-[3,4′-bipyridin]-2′-yl)acetamide] | 0.01 to 0.05 µM | – | – |
| CC(=O)Nc1cc(-c2cnc(N)c(C(=O)NC34CC(C3)C4)c2)ccn1 [Compound I-187, 2′-acetamido-6-amino-N-(bicyclo[1.1.1]pent-1-yl)-3,4′-bipyridine-5-carboxamide] | < 0.01 µM | – | – |
| Cc1ncc(-c2ccnc(NC(=O)C3CC3(F)F)c2)cc1NS(=O)(=O)c1ccc(Cl)cc1F (centres unmarked) [Compound I-441, N-(5-{[(4-chloro-2-fluorophenyl)sulfonyl]amino}-6-methyl-3,4′-bipyridin-2′-yl)-2,2-difluorocyclopropanecarboxamide] | < 0.01 µM | – | – |
| CC(=O)Nc1cc(-c2cnc(N)c(S(=O)(=O)NCC3CCCCC3)c2)ccn1 [Compound I-183, N-{6-amino-5-[(cyclohexylmethyl)sulfamoyl]-3,4′-bipyridin-2′-yl}acetamide] | < 0.01 µM | – | – |
| CC(=O)Nc1cc(-c2cncc(N3CCCN(C)S3(=O)=O)c2)ccn1 [Compound I-452, N-[5-(6-methyl-1,1-dioxido-1,2,6-thiadiazinan-2-yl)-3,4′-bipyridin-2′-yl]acetamide] | 0.01 to 0.05 µM | – | – |
| CCc1c(-c2ccnc(Nc3ccnc(C)n3)c2)cnc(Cl)c1NS(=O)(=O)c1ccc(F)cc1F [Compound I-259, N-{6-chloro-4-ethyl-2′-[(2-methylpyrimidin-4-yl)amino]-3,4′-bipyridin-5-yl}-2,4-difluorobenzenesulfonamide] | < 0.01 µM | 79% | – |
| CC(=O)Nc1cc(-c2cnc3[nH]cc(S(=O)(=O)N4CCCC4)c3c2)ccn1 [Compound I-158, N-{4-[3-(pyrrolidin-1-ylsulfonyl)-1H-pyrrolo[2,3-b]pyridin-5-yl]pyridin-2-yl}acetamide] | < 0.01 µM | – | – |
| CC(=O)Nc1cc(-c2cnc(N)c(S(=O)(=O)CCc3ccccc3)c2)ccn1 [Compound I-126, N-[6-amino-5-[(2-phenylethyl)sulfonyl]-3,4′-bipyridin-2′-yl]acetamide] | 0.05 to 0.1 µM | – | – |
| CCOCCS(=O)(=O)c1cc(-c2ccnc(NC(C)=O)c2)cnc1N [Compound I-145, N-{6-amino-5-[(2-ethoxyethyl)sulfonyl]-3,4′-bipyridin-2′-yl}acetamide] | 0.05 to 0.1 µM | – | – |
| Cc1nc(Nc2cc(-c3cnc(C)c(NS(=O)(=O)c4ccc(F)cc4F)c3)ccn2)nc(C2CC2)n1 [Compound I-382, N-{2′-[(4-cyclopropyl-6-methyl-1,3,5-triazin-2-yl)amino]-6-methyl-3,4′-bipyridin-5-yl}-2,4-difluorobenzenesulfonamide] | < 0.01 µM | – | – |

| Structure (SMILES) | IC50 (IC50 range class) | Percent Inhibition | IC50 |
| --- | --- | --- | --- |
| CC(=O)Nc1cc(-c2cnc(C)c(NS(=O)(=O)N3CCCCCC3)c2)ccn1 [Compound I-341] | 0.01 to 0.05 µM | – | – |
| Cc1nccc(Nc2cc(-c3cnc(Cl)c(S(=O)(=O)NC4CCC4)c3)ccn2)n1 [Compound I-215, 6-chloro-N-cyclobutyl-2′-((2-methylpyrimidin-4-yl)amino)-[3,4′-bipyridine]-5-sulfonamide] | 0.01 to 0.05 µM | – | – |
| Cc1nccc(Nc2cc(-c3cnc4c(c3)C(=O)N(Cc3ccccc3)CC4)ccn2)n1 [Compound I-378, 6-benzyl-3-[2-[(2-methylpyrimidin-4-yl)amino]-4-pyridyl]-7,8-dihydro-1,6-naphthyridin-5-one] | > 0.1 µM | – | – |
| CC(=O)Nc1cc(-c2cnc(Cl)c(NS(=O)(=O)c3cccc4ncccc34)c2C)ccn1 [Compound I-437, N-{6-chloro-4-methyl-5-[(quinolin-5-ylsulfonyl)amino]-3,4′-bipyridin-2′-yl}acetamide] | 0.01 to 0.05 µM | – | – |
| Cc1nccc(Nc2cc(-c3cnc(C)c(OCc4ccccc4)c3)ccn2)n1 [Compound I-363, 5-(benzyloxy)-6-methyl-N-(2-methylpyrimidin-4-yl)-3,4′-bipyridin-2′-amine] | > 0.1 µM | – | – |
| COc1ncc(-c2ccnc(NC(C)=O)c2)cc1S(=O)(=O)Nc1ccc(Cl)cc1Cl [Compound I-344] | 0.01 to 0.05 µM | – | – |
| CC(=O)Nc1cc(-c2cnc(N)c(S(=O)(=O)CC3CC3)c2)ccn1 [Compound I-208] | – | >99% | 0.01 to 0.05 µM |
| CC(=O)Nc1cc(-c2cnc(N)c(C(=O)Nc3cccc(F)c3F)c2)ccn1 [Compound I-179, 2′-acetamido-6-amino-N-(2,3-difluorophenyl)-3,4′-bipyridine-5-carboxamide] | < 0.01 µM | – | – |
| CC(=O)Nc1cc(-c2cnc(C)c(NS(=O)(=O)c3cccc(F)c3F)c2)ccn1 [Compound I-377, N-(5-{[(2,3-difluorophenyl)sulfonyl]amino}-6-methyl-3,4′-bipyridin-2′-yl)acetamide] | 0.01 to 0.05 µM | – | – |
| O=C(c1cncc(-c2ccnc(Nc3ccnc(C4CC4)n3)c2)c1)N1CC(F)(F)C1 [Compound I-413, (2′-[(2-cyclopropylpyrimidin-4-yl)amino]-3,4′-bipyridin-5-yl)(3,3-difluoroazetidin-1-yl)methanone] | 0.01 to 0.05 µM | – | – |
| CC(=O)Nc1cc(-c2cnc3cnn(S(=O)(=O)C4CC4)c3c2)ccn1 [Compound I-2, N-{4-[1-(cyclopropylsulfonyl)-1H-pyrazolo[4,3-b]pyridin-6-yl]pyridin-2-yl}acetamide] | 0.01 to 0.05 µM | – | – |
| CCN(CC)S(=O)(=O)c1cncc(-c2ccnc(NC(C)=O)c2)c1 [Compound I-120, N-[5-(diethylsulfamoyl)-3,4′-bipyridin-2′-yl]acetamide] | < 0.01 µM | – | – |
| CNc1ncc(-c2ccnc(NC(C)=O)c2)cc1NS(=O)(=O)c1ccc(F)cc1F [Compound I-31, N-[5-{[(2,4-difluorophenyl)sulfonyl]amino}-6-(methylamino)-3,4′-bipyridin-2′-yl)acetamide] | 0.01 to 0.05 µM | >99% | – |
| CC(=O)Nc1cc(-c2cnc(C)c(NS(=O)(=O)N3CCC(F)(F)CC3)c2)ccn1 [Compound I-374, N-(5-{[(4,4-difluoropiperidin-1-yl)sulfonyl]amino}-6-methyl-3,4′-bipyridin-2′-yl)acetamide] | 0.01 to 0.05 µM | – | – |
| CN(C)S(=O)(=O)c1cc(-c2ccnc(Nc3ncco3)c2)cnc1N [Compound I-166, 6-amino-N,N-dimethyl-2′-(1,3-oxazol-2-ylamino)-3,4′-bipyridine-5-sulfonamide] | < 0.01 µM | – | – |
| CC(=O)Nc1cc(-c2cncc(N3CCCCS3(=O)=O)c2)ccn1 [Compound I-320, N-[5-(1,1-dioxido-1,2-thiazinan-2-yl)-3,4′-bipyridin-2′-yl]acetamide] | 0.01 to 0.05 µM | – | – |
| Cc1ncc(-c2ccnc(Nc3ncccn3)c2)cc1NS(=O)(=O)c1ccc(F)cc1F [Compound I-265, 2,4-difluoro-N-[6-methyl-2′-(pyrimidin-2-ylamino)3,4′-bipyridin-5-yl]benzenesulfonamide] | < 0.01 µM | – | – |
| CC(=O)Nc1cc(-c2cnc(C)c(N3CC(N(C)C)CS3(=O)=O)c2)ccn1 (single isomer, unassigned) [Compound I-496, N-(5-(4-(dimethylamino)-1,1-dioxidoisothiazolidin-2-yl)-6-methyl-[3,4′-bipyridin]-2′-yl)acetamide] | 0.01 to 0.05 µM | – | – |
| CC(=O)Nc1cc(-c2cncc(S(=O)(=O)NC34CC5CC(CC(C5)C3)C4)c2)ccn1 [Compound I-468, N-[5-(adamantan-1-ylsulfamoyl)-3,4′-bipyridin-2′-yl]acetamide] | 0.01 to 0.05 µM | – | – |
| CC(=O)Nc1cc(-c2cnc(C)c(NS(=O)(=O)c3ccc(F)cc3F)c2)c(C)cn1 [Compound I-177, N-(5-{[(2,4-difluorophenyl)sulfonyl]amino}-5′,6-dimethyl-3,4′-bipyridin-2′-yl)acetamide] | 0.01 to 0.05 µM | – | – |
